Results taken from PubChem BioAssay AID330 (DTP/NCI, 2004).
Values joined by “and” are separate entries in the source; they are usually repeats but may differ in a detail not shown here. Equal values may be shown once. Toxic doses and inconclusive results are not listed. The calls were made as follows: active = survival T/C of 150% or more; inactive = T/C below 125% in these data.

Test system: P388 leukemia ip, CD2F1 mice, survival T/C
Test: NCI In Vivo Anticancer Drug Screen. Data for tumor model P388 Leukemia (intraperitoneal) in CD2F1 (CDF1) mice
Conditions: endpoint: median survival time, higher = longer survival
In short: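 Mice carrying the transplanted tumor received test compound or vehicle. Survival was recorded in each group, and the value is the treated-group measurement divided by that of the vehicle-treated control group.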

[1] = dose: 100.0 mg/kg/injection, schedule: Q04DX003 (ip), vehicle: saline
[2] = dose: 200.0 mg/kg/injection, schedule: Q04DX003 (ip), vehicle: saline
[3] = dose: 50.0 mg/kg/injection, schedule: Q01DX005 (ip), vehicle: Klucel (hydroxypropylcellulose) (HPC)
[4] = dose: 100.0 mg/kg/injection, schedule: Q01DX005 (ip), vehicle: Klucel (hydroxypropylcellulose) (HPC)
[5] = dose: 60.0 mg/kg/injection, schedule: Q01DX005 (ip), vehicle: saline with Tween-80
[6] = dose: 120.0 mg/kg/injection, schedule: Q01DX005 (ip), vehicle: saline with Tween-80
[7] = dose: 240.0 mg/kg/injection, schedule: Q01DX005 (ip), vehicle: saline with Tween-80
[8] = dose: 50.0 mg/kg/injection, schedule: Q01DX005 (ip), vehicle: saline with Tween-80
[9] = dose: 100.0 mg/kg/injection, schedule: Q01DX005 (ip), vehicle: saline with Tween-80
[10] = dose: 200.0 mg/kg/injection, schedule: Q01DX005 (ip), vehicle: saline with Tween-80
[11] = dose: 50.0 mg/kg/injection, schedule: Q01DX009 (ip), vehicle: saline
[12] = dose: 100.0 mg/kg/injection, schedule: Q01DX009 (ip), vehicle: saline
[13] = dose: 200.0 mg/kg/injection, schedule: Q01DX009 (ip), vehicle: saline
[14] = dose: 50.0 mg/kg/injection, schedule: Q01DX009 (ip), vehicle: saline with Tween-80
[15] = dose: 60.0 mg/kg/injection, schedule: Q01DX005 (ip), vehicle: Klucel (hydroxypropylcellulose) (HPC)
[16] = dose: 120.0 mg/kg/injection, schedule: Q01DX005 (ip), vehicle: Klucel (hydroxypropylcellulose) (HPC)
[17] = dose: 240.0 mg/kg/injection, schedule: Q01DX005 (ip), vehicle: Klucel (hydroxypropylcellulose) (HPC)
[18] = dose: 100.0 mg/kg/injection, schedule: Q04DX003 (ip), vehicle: saline with Tween-80
[19] = dose: 200.0 mg/kg/injection, schedule: Q04DX003 (ip), vehicle: saline with Tween-80
[20] = dose: 400.0 mg/kg/injection, schedule: Q04DX003 (ip), vehicle: saline with Tween-80
[21] = dose: 12.5 mg/kg/injection, schedule: Q01DX009 (ip), vehicle: saline with Tween-80
[22] = dose: 25.0 mg/kg/injection, schedule: Q01DX009 (ip), vehicle: saline with Tween-80

Measured: T/C

CN(C)c1ccc(C(Nc2ccc(S(=O)(=O)Nc3ccccc3)cc2)c2ccc(N(C)C)cc2)cc1
inactive: dose: 100.0 mg/kg/injection, schedule: Q04DX003 (ip), vehicle: Klucel (hydroxypropylcellulose) (HPC) 105 % of control | dose: 200.0 mg/kg/injection, schedule: Q04DX003 (ip), vehicle: Klucel (hydroxypropylcellulose) (HPC) 110 % of control | dose: 400.0 mg/kg/injection, schedule: Q04DX003 (ip), vehicle: Klucel (hydroxypropylcellulose) (HPC) 105 % of control

C1=NCCN=Cc2ccccc2NCCNc2ccccc21
inactive: [1] 93 % of control | [2] 91 % of control | dose: 400.0 mg/kg/injection, schedule: Q04DX003 (ip), vehicle: saline 103 % of control

Cn1cnc(=O)c2n[nH]nc21
inactive: [3] 100 % of control | [4] 100 % of control | dose: 200.0 mg/kg/injection, schedule: Q01DX005 (ip), vehicle: Klucel (hydroxypropylcellulose) (HPC) 87 % of control

COc1c2c(c(OC)c3c(OC)c4ccccc4c(OC)c13)CC(=O)CC2
inactive: dose: 1.56 mg/kg/injection, schedule: Q01DX009 (ip), vehicle: other 105 % of control | dose: 3.13 mg/kg/injection, schedule: Q01DX009 (ip), vehicle: other 101 % of control | dose: 6.25 mg/kg/injection, schedule: Q01DX009 (ip), vehicle: other 105 % of control | dose: 12.5 mg/kg/injection, schedule: Q01DX009 (ip), vehicle: other 101 % of control | dose: 25.0 mg/kg/injection, schedule: Q01DX009 (ip), vehicle: other 91 % of control

c1ccc2c(SCCOCCSc3c4ccccc4nc4ccccc34)c3ccccc3nc2c1
inactive: [5] 98 % of control | [6] 92 % of control | [7] 90 % of control

Clc1ccccc1-c1nnc(-c2cccc(-c3nnc(-c4ccccc4Cl)s3)c2)s1
inactive: [8] 91 % of control | [9] 89 % of control | [10] 90 % of control

CC(N)C(O)c1ccc(O)cc1 (stereo not given)
inactive: [11] 102 % of control and 108 % of control | [12] 101 % of control | [13] 101 % of control and 108 % of control | dose: 400.0 mg/kg/injection, schedule: Q01DX009 (ip), vehicle: saline 87 % of control and 89 % of control

CCN(CC)CCn1c2c(c3ccc(OC)cc31)CCN1CC3CC(OC(=O)c4cc(OC)c(OC)c(OC)c4)C(OC)C(C(=O)OC)C3CC21 (stereo not given)
inactive: dose: 25.0 mg/kg/injection, schedule: Q01DX005 (ip), vehicle: saline 97 % of control | dose: 50.0 mg/kg/injection, schedule: Q01DX005 (ip), vehicle: saline 96 % of control | dose: 100.0 mg/kg/injection, schedule: Q01DX005 (ip), vehicle: saline 101 % of control | dose: 200.0 mg/kg/injection, schedule: Q01DX005 (ip), vehicle: saline 106 % of control

c1ccc2c(c1)c1cccc3sc4cccc2c4c31
inactive: [8] 99 % of control | [9] 96 % of control | [10] 92 % of control

O=C(c1ccccc1)c1nc(-c2ccccc2)oc1-c1ccccc1
inactive: dose: 100.0 mg/kg/injection, schedule: Q01DX001 (ip), vehicle: saline 100 % of control | dose: 200.0 mg/kg/injection, schedule: Q01DX001 (ip), vehicle: saline 108 % of control | dose: 400.0 mg/kg/injection, schedule: Q01DX001 (ip), vehicle: saline 99 % of control

Cc1ccc2c(c1)NC(=S)N=S2(C)=O (stereo not given)
inactive: [14] 95 % of control | dose: 100.0 mg/kg/injection, schedule: Q01DX009 (ip), vehicle: saline with Tween-80 93 % of control | dose: 200.0 mg/kg/injection, schedule: Q01DX009 (ip), vehicle: saline with Tween-80 102 % of control

CCCCCCC(=O)CC(SCCS)c1ccc(Cl)c(Cl)c1 (stereo not given)
inactive: [11] 102 % of control | [12] 89 % of control

CCC1(O)C(=O)Nc2ccc(OC)cc2C1=O (stereo not given)
inactive: [15] 97 % of control | [16] 93 % of control | [17] 93 % of control

CCOC(/C=C/c1ccccc1)OCC
inactive: [1] 104 % of control | [2] 104 % of control

CCOC(=O)c1cc(NC(C)=O)c(C)n1C
inactive: [18] 107 % of control | [19] 116 % of control | [20] 112 % of control

CC(C)CC(Br)C(=O)NCC(=O)O (stereo not given)
inactive: [18] 104 % of control | [19] 100 % of control | [20] 104 % of control

CC(C)n1nnnc1-c1ccccc1
inactive: dose: 50.0 mg/kg/injection, schedule: Q01DX009 (ip), vehicle: Klucel (hydroxypropylcellulose) (HPC) 94 % of control | dose: 100.0 mg/kg/injection, schedule: Q01DX009 (ip), vehicle: Klucel (hydroxypropylcellulose) (HPC) 94 % of control | dose: 200.0 mg/kg/injection, schedule: Q01DX009 (ip), vehicle: Klucel (hydroxypropylcellulose) (HPC) 94 % of control

CCC1(CC(=O)O)OCCc2c1[nH]c1c(C)c(Cl)ccc21 (stereo not given)
inactive: dose: 50.0 mg/kg/injection, schedule: Q01DX001 (ip), vehicle: Klucel (hydroxypropylcellulose) (HPC) 101 % of control | dose: 100.0 mg/kg/injection, schedule: Q01DX001 (ip), vehicle: Klucel (hydroxypropylcellulose) (HPC) 101 % of control | dose: 200.0 mg/kg/injection, schedule: Q01DX001 (ip), vehicle: Klucel (hydroxypropylcellulose) (HPC) 100 % of control

Oc1ccccc1C=Nc1cccnc1
inactive: [21] 96 % of control | [22] 101 % of control | [14] 87 % of control

CN(C)CCSc1nc2ccccc2o1
inactive: dose: 60.0 mg/kg/injection, schedule: Q01DX005 (ip), vehicle: saline 105 % of control | dose: 120.0 mg/kg/injection, schedule: Q01DX005 (ip), vehicle: saline 104 % of control

CC(C)C1C(=O)NC(c2ccc(N)cc2)c2ccccc21 (stereo not given)
inactive: [21] 104 % of control | [22] 94 % of control | [14] 93 % of control | [11] 105 % of control | [13] 90 % of control

O=C1OC(c2ccc(O)cc2)(c2ccc(O)cc2)c2ccccc21
inactive: dose: 100.0 mg/kg/injection, schedule: Q04DX002 (ip), vehicle: saline with Tween-80 99 % of control | dose: 200.0 mg/kg/injection, schedule: Q04DX002 (ip), vehicle: saline with Tween-80 103 % of control | dose: 400.0 mg/kg/injection, schedule: Q04DX002 (ip), vehicle: saline with Tween-80 93 % of control

O=C1CNC(=O)N1CN1CCOCC1
inactive: dose: 25.0 mg/kg/injection, schedule: Q01DX005 (ip), vehicle: Klucel (hydroxypropylcellulose) (HPC) 107 % of control | [3] 107 % of control and 111 % of control | [4] 118 % of control

CCCCOc1ccc(Nc2c(C(=O)O)cnc3cc4c(cc23)OCO4)cc1
inactive: [15] 100 % of control | [16] 91 % of control | [17] 97 % of control

CCCC/C([O-])=C1/C(=O)N(c2ccccc2)N=C1C.CCCC/C([O-])=C1/C(=O)N(c2ccccc2)N=C1C.[Cu+2]
inactive: [5] 90 % of control | [6] 97 % of control | [7] 96 % of control

Nc1ncnc(N)c1NC(=O)c1ccccc1
inactive: dose: 60.0 mg/kg/injection, schedule: Q01DX005 (ip), vehicle: suspension in saline 98 % of control | dose: 120.0 mg/kg/injection, schedule: Q01DX005 (ip), vehicle: suspension in saline 106 % of control
